Our source for the TGI values is PubChem BioAssay (NCI).

Molecules are shown by their SMILES.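 Protocol summary: plate cells (96-well), add compound at 5 concentrations, incubate 48 h, interpolate endpoints linearly. At the TGI there is no net growth.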

Among the test systems are P388/ADR leukemia; SN12K1 renal; P388 leukemia; MDA-MB-231 breast; HS 578T breast; T-47D breast; MDA-MB-435; PC-3 prostate; BT-549 breast; MDA-N; A498 renal; RXF-631 renal.
Assay in all cases: NCI tumour cell line growth inhibition, 48 h

Consider `O=c1cc[nH]c(=O)[nH]1`, for which the TGI in the experiment with P388/ADR leukemia is 807 µM; in the experiment with SN12K1 renal it was 994 µM; with P388 leukemia, 447 µM.
`NC(CCCCCP(=O)(c1ccccc1)C1C=CC=CC1)C(=O)O` (configuration not stated): the TGI with MDA-MB-231 breast, with HS 578T breast, in the experiment on T-47D breast, with MDA-MB-435, with PC-3 prostate and in the experiment with BT-549 breast was more than 100 µM in each case. This compound yielded a TGI in the experiment with MDA-N of more than 100 µM.
As to `CC(=O)OC1/C=C(\C)C(OC(C)=O)C/C=C(/C)CCC2C(/C=C/C1=O)C2(C)C` (configuration not stated), the TGI with A498 renal and in the experiment on RXF-631 renal was more than 100 µM throughout.
